Source: paper PMC7230731 (Marine Drugs, 2020)

Legend:
MDA-MB-231 cells = test: SRB antiproliferative assay, MDA-MB-231; format: cell-based, human; conditions: for IC50: MDA-MB-231 triple-negative breast cancer cells, SRB assay, 48 h, mean ± S.D. of three experiments; for potency relative to non-brominated counterpart (9g vs 9d, 9h vs 9e), MDA-MB-231 / potency relative to Staurosporine, MDA-MB-231: ratio of IC50 values, MDA-MB-231 cells
Procedure: (§1) 1. Anti-proliferative action toward human breast cell lines […]
(§2) and non-tumorigenic human breast epithelial cell line (MCF-10A) have been obtained from American Type Culture Collection (ATCC). The cells were maintained in Dulbecco's modified Eagle's medium (DMEM) supplemented with 10% heat inactivated fetal calf serum (GIBCO), penicillin (100 U/ml) and streptomycin (100 µg/ml) at 37 °C in humidified atmosphere containing 5% CO2. […]
(§3) grown in a 25 cm2 flask in 5 ml of culture medium.
(§4) The anti-proliferative activity of the tested compounds was measured in vitro using the Sulfo-Rhodamine-B stain (SRB) assay. Briefly, Cells were inoculated in 96-well microtiter plate (5X104 cells/ well) for 24 h before treatment with the tested compounds to allow attachment of cell to the wall of the plate. Tested compounds were dissolved in DMSO at 1 mg/ml immediately before use and diluted to the appropriate volume just before addition to the cell culture. Different concentrations of tested compounds, doxorubicin and sorafenib were added to the cells (three wells were prepared for each […]
(§5) atmosphere of 5% CO2. After 48 h cells were fixed, washed, and stained for 30 min with 0.4% (w/v) SRB dissolved in 1% acetic acid. Unbound dye was removed by four washes with 1% acetic acid, and attached stain was recovered with Tris-EDTA buffer. Color intensity was measured in an ELISA reader. The relation between percent of surviving fraction and drug concentration is plotted to get the survival curve for each cell line. […]

MCF-10A cells = test: SRB cytotoxicity assay, non-tumorigenic MCF-10A; format: cell-based, human; conditions: for Selectivity Index MCF-10A/MCF-7: IC50 MCF-10A / IC50 MCF-7; for IC50: non-tumorigenic human breast epithelial MCF-10A cells, SRB assay
Source text: The two examined human breast cancer cell lines (MCF-7 and Breast MDA-MB-231), and non-tumorigenic human breast epithelial cell line (MCF-10A) have been obtained from the American Type Culture Collection (ATCC). Assessment of cytotoxicity for target indole derivatives has been performed following the SRB colorimetric assay procedures, as reported earlier.
1. Anti-proliferative action toward human breast cell lines
The two examined human breast cancer cell lines (MCF-7 and Breast MDA-MB-231), and non-tumorigenic human breast epithelial cell line (MCF-10A) have been obtained from American Type Culture Collection (ATCC). The cells were maintained in Dulbecco's modified Eagle's medium (DMEM) supplemented with 10% heat inactivated fetal calf serum (GIBCO), penicillin (100 U/ml) and streptomycin (100 µg/ml) at 37 °C in humidified atmosphere containing 5% CO2. Cells at a concentration of 0.50 x 106 were grown in a 25 cm2 flask in 5 ml of culture medium.
The anti-proliferative activity of the tested compounds was measured in vitro using the Sulfo-Rhodamine-B stain (SRB) assay. Briefly, Cells were inoculated in 96-well microtiter plate (5X104 cells/ well) for 24 h before treatment with the tested compounds to allow attachment of cell to the wall of the plate. Tested compounds were dissolved in DMSO at 1 mg/ml immediately before use and diluted to the appropriate volume just before addition to the cell culture. Different concentrations of tested compounds, doxorubicin and sorafenib were added to the cells (three wells were prepared for each individual dose). Cells were incubated with the compounds for 48 h at 37°C and in atmosphere of 5% CO2. After 48 h cells were fixed, washed, and stained for 30 min with 0.4% (w/v) SRB dissolved in 1% acetic acid. Unbound dye was removed by four washes with 1% acetic acid, and attached stain was recovered with Tris-EDTA buffer. Color intensity was measured in an ELISA reader. The relation between percent of surviving fraction and drug concentration is plotted to get the survival curve for each cell line. […]

MCF-7 cells = test: SRB antiproliferative assay, MCF-7; format: cell-based, human; conditions: for IC50: MCF-7 breast cancer cells, SRB assay, 48 h, mean ± S.D. of three experiments; for potency relative to Staurosporine, MCF-7: ratio of IC50 values, MCF-7 cells
Procedure: as §1, §2, §3, §4, §5

CDK2 = molecular target: T1, CDK2 (Homo sapiens, UniProt P24941); test: CDK2 kinase inhibition (Reaction Biology HotSpot); format: biochemical; conditions: single dose of 10 µM; for inhibition at 10 µM: read-out: % Enzyme Inhibitory Activity; for % Enzyme Inhibitory Activity: 10 µM
T1 construct: purchased Reaction Biology Corp. (Kinase HotSpot service)
Procedure: The in vitro CDK2 kinase inhibition assay was carried out by Reaction Biology Corp. (Reaction Biology Corp., Chester, PA, USA) Kinase HotSpotSM service (http://www.reactionbiology.com).
5. CDK2 kinase inhibitory activity
Reaction Biology Corp. Kinase HotSpotSM service
(http://www.reactionbiology.com) was used for screening of tested compounds. CDK2 Kinase inhibitory activity was assessed by the HotSpot assay platform, which contained specific kinase/substrate pairs along with required cofactors. Base reaction buffer:
0.1 mM Na3VO4, 2 mM DTT, 1% DMSO. Testing compounds were dissolved in 100% DMSO to specific concentration. The serial dilution was conducted by Integra Viaflo Assist in DMSO. The reaction mixture containing the examined compound and 33P-ATP was incubated at room temperature for 2 h and radioactivity was detected by filter-binding method. Kinase activity data were expressed as the percent remaining kinase activity in test samples compared to vehicle (dimethyl sulfoxide) reactions.

| Compound | melting point [°C] | IC50 (MDA-MB-231 cells; Homo sapiens, MDA-MB-231, 48 h) [µM] | potency relative to non-brominated counterpart (9g vs 9d, 9h vs 9e), MDA-MB-231 (MDA-MB-231 cells) [times] | Selectivity Index MCF-10A/MCF-7 (MCF-10A cells) | IC50 (MCF-10A cells) [µM] | IC50 (MCF-7 cells; Homo sapiens, MCF7, 48 h) [µM] | IC50 (MDA-MB-231 cells) [µM] | IC50 (MCF-7 cells) [µM] | inhibition at 10 µM (CDK2) [%] | potency relative to Staurosporine, MDA-MB-231 (MDA-MB-231 cells) [times] | potency relative to Staurosporine, MCF-7 (MCF-7 cells) [times] | % Enzyme Inhibitory Activity (CDK2) [%] |
| --- | --- | --- | --- | --- | --- | --- | --- | --- | --- | --- | --- | --- |
| O=C(Cc1c[nH]c2ccccc12)NN=C1C(=O)N(Cc2ccc(F)cc2)c2ccc(Br)cc21 [Compound 9h, N′-(5-Bromo-1-(4-fluorobenzyl)-2-oxoindolin-3-ylidene)-2-(1H-indol-3-yl)acetohydrazide] | 183 to 185 | 2.29 ± 0.09 | 7.7 | 1.2 | 26.1 | 20.89 ± 0.04 | – | – | – | – | – | – |
| CN[C@@H]1C[C@H]2O[C@@](C)([C@@H]1OC)n1c3ccccc3c3c4c(c5c6ccccc6n2c5c31)C(=O)NC4 [Staurosporine, reference compound] | – | – | – | – | – | 6.81 ± 0.22 | – | – | – | – | – | – |
| O=C(Cc1c[nH]c2ccccc12)NN=C1CCCc2ccccc21 [Compound 11, N′-(3,4-Dihydronaphthalen-1(2H)-ylidene)-2-(1H-indol-3-yl)acetohydrazide] | 244 to 245 | > 100 | – | – | – | 84.7 ± 4.02 | > 100 | – | – | – | – | – |
| N#Cc1ccc(CN2C(=O)C(=NNC(=O)Cc3c[nH]c4ccccc34)c3ccccc32)cc1 [Compound 9f, N′-(1-(4-Cyanobenzyl)-2-oxoindolin-3-ylidene)-2-(1H-indol-3-yl)acetohydrazide] | 233 to 234 | 25.4 ± 1.56 | – | 4.8 | 42 | 8.72 ± 0.39 | – | – | – | – | – | – |
| N′-(1-(sec-Butyl)-2-oxoindolin-3-ylidene)-2-(1H-indol-3-yl)acetohydrazide [Compound 9c] | – | – | – | – | – | – | > 100 | 47.1 ± 3.65 | – | – | – | – |
| O=C(Cc1c[nH]c2ccccc12)NN=C1C(=O)N(Cc2ccccc2)c2ccc(Br)cc21 [Compound 9g, N′-(1-Benzyl-5-bromo-2-oxoindolin-3-ylidene)-2-(1H-indol-3-yl)acetohydrazide] | 210 to 211 | 2.85 ± 0.07 | 1.5 | 6.2 | 17.2 | 2.76 ± 0.14 | – | – | – | – | – | – |
| O=C(Cc1c[nH]c2ccccc12)NN=C1C(=O)N(Cc2ccc(F)cc2)c2ccccc21 [Compound 9e, N′-(1-(4-Fluorobenzyl)-2-oxoindolin-3-ylidene)-2-(1H-indol-3-yl)acetohydrazide] | 227 to 229 | 17.7 ± 0.55 | – | 4.7 | 48.4 | 10.4 ± 0.81 | – | – | – | – | – | – |
| Cc1ccc2c(c1)C(=NNC(=O)Cc1c[nH]c3ccccc13)C(=O)N2 [Compound 7d, 2-(1H-Indol-3-yl)-N′-(5-methyl-2-oxoindolin-3-ylidene)acetohydrazide] | > 300 | 0.34 ± 0.02 | – | 5.0 | 54.9 | 11 ± 0.81 | – | – | 58 | 30.3 | – | – |
| CCCN1C(=O)C(=NNC(=O)Cc2c[nH]c3ccccc23)c2ccccc21 [Compound 9b, 2-(1H-Indol-3-yl)-N′-(2-oxo-1-propylindolin-3-ylidene)acetohydrazide] | 207 to 208 | 51.3 ± 3.59 | – | – | – | 28.2 ± 1.53 | – | – | – | – | – | – |
| O=C(Cc1c[nH]c2ccccc12)NN=C1C(=O)N(Cc2ccccc2)c2ccccc21 [Compound 9d, N′-(1-Benzyl-2-oxoindolin-3-ylidene)-2-(1H-indol-3-yl)acetohydrazide] | 223 to 225 | 4.14 ± 0.19 | – | 12.7 | 19.1 | 1.51 ± 0.03 | – | – | – | 2.5 | 4.5 | – |
| O=C(Cc1c[nH]c2ccccc12)NN=C1C(=O)Nc2ccc(F)cc21 [Compound 7a, N′-(5-Fluoro-2-oxoindolin-3-ylidene)-2-(1H-indol-3-yl)acetohydrazide] | 281 to 283 | 9.04 ± 0.32 | – | 9.2 | 14.1 | 1.53 ± 0.02 | – | – | 44 | – | 4.45 | 41 |
| Cc1cc(C)c2c(c1)C(=NNC(=O)Cc1c[nH]c3ccccc13)C(=O)N2 [Compound 7f, N′-(5,7-Dimethyl-2-oxoindolin-3-ylidene)-2-(1H-indol-3-yl)acetohydrazide] | 294 to 296 | 77.3 ± 6.21 | – | – | – | > 100 | – | > 100 | – | – | – | – |
| O=C(Cc1c[nH]c2ccccc12)NN=C1C(=O)Nc2ccc(Cl)cc21 [Compound 7b, N′-(5-Chloro-2-oxoindolin-3-ylidene)-2-(1H-indol-3-yl)acetohydrazide] | 292 to 294 | 2.88 ± 0.08 | – | 4.5 | 39.5 | 8.87 ± 0.43 | – | – | 44 | – | – | 41 |
| O=C(Cc1c[nH]c2ccccc12)NN=C1C(=O)Nc2ccc(Br)cc21 [Compound 7c, N′-(5-Bromo-2-oxoindolin-3-ylidene)-2-(1H-indol-3-yl)acetohydrazide] | > 300 | 36.6 ± 1.81 | – | – | – | 36.2 ± 2.78 | – | – | – | – | – | – |
